Measured values taken from US20230098254A1, “SCUTELLARIAE RADIX COMPOUNDS AND USE THEREOF FOR INHIBITING OXIDATIVE PHOSPHORYLATION PATHWAY OF MITOCHONDRIA” (priority 2020, published 2023).

Assays:
Type in all cases: cell-based
SNU-449 = assay: Cell viability CellTiter-Glo, SNU-449; conditions: Homo sapiens; SNU-449, liver cancer
Protocol: (§1) Cell viability was measured by using the Promega CellTiter-Glo kit, the kit reflected cell viability by directly measuring intracellular ATP content. Different cancer cells were cultured in culture medium, and the 50% inhibitory concentration IC50 of the compound SJ2858 was measured by Promega CellTiter-Glo kit. The name source and culture condition of each tumor cell line were as follows:
Cell line SNU-449 (ATCC, No. CRL-2234) was cultured in RPMI1640 medium containing 10% fetal bovine serum (+P/S);

Jurkat, Clone E6-1 = assay: Cell viability CellTiter-Glo, Jurkat, Clone E6-1; conditions: Homo sapiens, Clone E6-1, leukemia
Protocol: as §1
Cell line Jurkat, Clone E6-1 (ATCC, No. TIB-152) was cultured in RPMI1640 medium containing 10% fetal bovine serum (+P/S);

MDA-MB-453 = assay: Cell viability CellTiter-Glo, MDA-MB-453; conditions: Homo sapiens; MDA-MB-453, breast cancer
Protocol: as §1
Cell line MDA-MB-453 (ATCC, No. HTB-131) was cultured in Leibovitz's L-15 medium containing 10% fetal bovine serum (+P/S);

NCI-H1048 = assay: Cell viability CellTiter-Glo, NCI-H1048; conditions: Homo sapiens; NCI-H1048, lung cancer
Protocol: as §1
Cell line NCI-H1048 (ATCC, No. CRL-5853) was cultured in HITES medium containing 5% fetal bovine serum (+P/S);

G-401 = assay: Cell viability CellTiter-Glo, G-401; conditions: Homo sapiens; G-401, kidney cancer
Protocol: as §1
Cell line G-401 (ATCC, No. CRL-1441) was cultured in McCoy's 5a medium containing 10% fetal bovine serum (+P/S);

GAK = assay: Cell viability CellTiter-Glo, GAK; conditions: melanoma
Protocol: as §1
Cell line GAK (JCRB, No. JCRB0180) was cultured in Ham's F12 medium containing 20% fetal bovine serum (+P/S);

CCRF-CEM = assay: Cell viability CellTiter-Glo, CCRF-CEM; conditions: Homo sapiens, leukemia
Protocol: as §1
Cell line CCRF-CEM (ATCC, No. CCL-119) was cultured in RPMI1640 medium containing 10% fetal bovine serum (+P/S);

HH = assay: Cell viability CellTiter-Glo, HH; conditions: Homo sapiens, lymphoma
Protocol: as §1
Cell line HH (ATCC, No. CRL-2105) was cultured in RPMI1640 medium containing 10% fetal bovine serum (+P/S);

LS 180 = assay: Cell viability CellTiter-Glo, LS 180; conditions: Homo sapiens, LS180; LS 180, intestinal cancer
Protocol: as §1, with “follows: […]” for “follows:”

C3A = assay: Cell viability CellTiter-Glo, C3A; conditions: Homo sapiens, liver cancer
Protocol: as §1
Cell line C3A (ATCC, No. CRL-10741) was cultured in EMEM medium containing 10% fetal bovine serum (+P/S);

HCC1806 = assay: Cell viability CellTiter-Glo, HCC1806; conditions: Homo sapiens; HCC1806, breast cancer
Protocol: as §1
Cell line HCC1806 (ATCC, No. CRL-2335) was cultured in RPMI1640 medium containing 10% fetal bovine serum (+P/S);

H9 = assay: Cell viability CellTiter-Glo, H9; conditions: Homo sapiens; H9, lymphoma
Protocol: as §1
Cell line H9 (ATCC, No. HTB-176) was cultured in RPMI1640 medium containing 10% fetal bovine serum (+P/S);

G-402 = assay: Cell viability CellTiter-Glo, G-402; conditions: Homo sapiens; G-402, kidney cancer
Protocol: as §1
Cell line G-402 (ATCC, No. CRL-1440) was cultured in McCoy's 5a medium containing 10% fetal bovine serum (+P/S);

SU-DHL-2 = assay: Cell viability CellTiter-Glo, SU-DHL-2; conditions: Homo sapiens; SU-DHL-2, lymphoma
Protocol: as §1
Cell line SU-DHL-2 (ATCC, No. CRL-2956) was cultured in RPMI1640 medium containing 10% fetal bovine serum (+P/S);

GB-1 = assay: Cell viability CellTiter-Glo, GB-1; conditions: Homo sapiens; GB-1, brain cancer
Protocol: as §1
Cell line GB-1 (JCRB, No. IFO50489) was cultured in DMEM medium containing 10% fetal bovine serum (+P/S);

Gp2D = assay: Cell viability CellTiter-Glo, Gp2D; conditions: intestinal cancer
Protocol: as §1
Cell line Gp2D (ECACC, No. 95090714) was cultured in DMEM medium containing 10% fetal bovine serum (+P/S);

786-O = assay: Cell viability CellTiter-Glo, 786-O; conditions: Homo sapiens, 786-0, kidney cancer
Protocol: as §1
Cell line 786-O (ATCC, No. CRL-1932) was cultured in RPMI1640 medium containing 10% fetal bovine serum (+P/S);

U-937 = assay: Cell viability CellTiter-Glo, U-937; conditions: Homo sapiens; U-937, lymphoma
Protocol: as §1
Cell line U-937 (ATCC, No. CRL-1593.2) was cultured in RPMI1640 medium containing 10% fetal bovine serum (+P/S);

OCI-AML-4 = assay: Cell viability CellTiter-Glo, OCI-AML-4; conditions: OCI-AML-4, leukemia
Protocol: as §1
Cell line OCI-AML-4 (DSMZ, No. ACC-729) was cultured in alpha-MEM medium containing 20% fetal bovine serum and 20% volume fraction of 5637 cell line adjusted medium (+P/S);

SF126 = assay: Cell viability CellTiter-Glo, SF126; conditions: Homo sapiens, SF-126; SF126, brain cancer
Protocol: as §1
Cell line SF126 (JCRB, No. IFO50286) was cultured in EMEM medium containing 10% fetal bovine serum (+P/S);

MIA PaCa-2 = assay: Cell viability CellTiter-Glo, MIA PaCa-2; conditions: Homo sapiens; MIA PaCa-2, pancreatic cancer
Protocol: as §1
Cell line MIA PaCa-2 (ATCC, No. CRL-1420) was cultured in DMEM medium containing 10% fetal bovine serum (+P/S);

O=c1cc(-c2ccccc2)oc2cc(O)c(O)c(O)c12 [Compound SJ2858, baicalein]
IC50 (SNU-449): 26.9 µM | IC50 (Jurkat, Clone E6-1): 14.2 µM | IC50 (MDA-MB-453): 75.3 µM | IC50 (NCI-H1048): 15 µM | IC50 (G-401): 12.3 µM | IC50 (GAK): 23.1 µM | IC50 (CCRF-CEM): 14.7 µM | IC50 (HH): 34 µM | IC50 (LS 180): 17.4 µM | IC50 (C3A): 27 µM | IC50 (HCC1806): 25.7 µM | IC50 (H9): 19 µM | IC50 (G-402): 4.2 µM | IC50 (SU-DHL-2): 6.2 µM | IC50 (GB-1): 12.4 µM | IC50 (Gp2D): 14.9 µM | IC50 (786-O): 10.6 µM | IC50 (U-937): 39.2 µM | IC50 (OCI-AML-4): 24.6 µM | IC50 (SF126): 14 µM | IC50 (MIA PaCa-2): 19.7 µM
